Legend:
Assay type in all cases: in vivo
[1] = test system: green peach aphid (Myzus persicae); assay: Control value test against the green peach aphid (foliar spray on Chinese cabbage); conditions: 500 ppm spray on stems and leaves of Chinese cabbage, 6th day after spray
Description: Chinese cabbage was planted in plastic pots with a diameter of 8 cm and a height of 8 cm to breed green peach aphids, and the number of the infesting aphids in each pot was investigated. The present inventive compound was dispersed in water and diluted to a 500 ppm chemical solution, and the chemical solution was sprayed on the stems and leaves of the Chinese cabbage plants planted in the pots. After air drying, the pots were kept in a greenhouse. On the 6th day after the spray of the chemical solution, the number of the green peach aphids infesting on each Chinese cabbage plant was counted and the control value was calculated on the following equation, whereby the effect was judged according to the criterion below.
The Comparative test compound was tested in the same way, and the control value was calculated and judged.
[formula] • Ta: number of infestants before spraying in the treated group, • T: number of infestants after spraying in the treated group, • Ca: number of infestants before spraying in the untreated group, • C: number of infestants after spraying in the untreated group.
• A: Control value 100% • B: Control value 99-90% • C: Control value 89-80% • D: Control value 79-50%

[2] = test system: smaller brown planthopper (Laodelphax striatellus); assay: Insecticidal test against the smaller brown planthopper (rice seedling immersion); conditions: 500 ppm, rice seedling immersed 30 seconds, third instar nymphs, eight days after
Description: The present inventive compound was dispersed in water to adjust the concentration to 500 ppm and a rice seedling was immersed therein for 30 seconds; after air dried, the seedling was put in a test tube, 10 third instar nymphs were inoculated and the test tube was sealed with a cotton plug. Eight days after, the alive and dead insects were counted to calculate the corrected mortality according to the following equation and the insecticidal effect was judged according to the criterion shown below.
(§1) The Comparative test compound was tested in the same way, and the corrected mortality was calculated and judged.
(§2) [formula] • Criterion: A: Corrected mortality 100% • B: Corrected mortality 99%-90% • C: Corrected mortality 89%-80% • D: Corrected mortality 79%-50%

[3] = test system: diamond back moth (Plutella xylostella); assay: Insecticidal test against the diamond back moth (Chinese cabbage seedling with eggs, immersion); conditions: 500 ppm, seedling with eggs immersed about 30 seconds, 25° C., six days after immersion
Experimental: The adult diamond back moths were released and allowed to oviposit on a Chinese cabbage seedling. Two days after the release, the seedling having the eggs deposited thereon was immersed for about 30 seconds in a liquid chemical prepared by diluting a preparation containing the present inventive compound as an active ingredient to adjust the concentration to 500 ppm. After air dried, it was allowed to stand in a room thermostatted at 25° C. Six days after the immersion, the alive insects were counted. The corrected mortality was calculated according to the following equation and the insecticidal effect was judged according to the criterion shown below. The test was carried out with triplicate groups.
as §1, §2

[4] = test system: common cutworm (Spodoptera litura); assay: Insecticidal test against the common cutworm (cabbage leaf dip); conditions: 500 ppm, cabbage leaf dipped about 30 seconds, second-instar larvae, 25° C., eight days after inoculation
Experimental: A piece of cabbage leaf (cultivar; Shikidori) was dipped for about 30 seconds in a chemical solution prepared by diluting a preparation containing the present inventive compound as an active ingredient to adjust the concentration to 500 ppm. After air dried, it was placed in a plastic Petri dish with a diameter of 9 cm and inoculated with second-instar larvae of common cutworm, after which the dish was closed and then allowed to stand in a room thermostatted at 25° C. Eight days after the inoculation, the number of the alive insects were counted. The corrected mortality was calculated according to the following equation and the insecticidal effect was judged according to the following criterion. The test was carried out with triplicate groups of 10 insects.
as §1, §2

[5] = test system: Western honeybees (Apis mellifera); assay: Safety test for the Western honeybee (oral acute toxicity test)
Experimental: Seven to ten adult Western honeybees (Apis mellifera) were released in a plastic cage (8 cm×12 cm×20 cm), and after fasting for 2 hours, they were oral administered, using a 1.5 ml microtube, with a 50% sucrose solution as a test bait containing a chemical solution of a predetermined concentration. Four hours after the administration, the test bait was taken out, and the amount of the compound taken per animal was calculated from the remaining amount. At the same time, the animals were fed with a sufficient amount of 50% sucrose solution, maintained at 25° C., H55-75%, 16L8D. The numbers of dead and abnormal insects were counted after 24, 48 and 96 hours to calculate the median lethal dose (LD50 value). The untreated group was fed with a 50% sucrose solution […] and was maintained under the same conditions as the chemical-treated group.

SMILES | control value (activity class) [1] | corrected mortality (activity class) [2] | corrected mortality (activity class) [3] | corrected mortality (activity class) [4] | improvement in safety for the Western honeybee compared with the comparative compound ([5]; from oral LD50 values after 96 hours) | LD50 value for one adult honeybee ([5]; oral, after 96 hours, per adult honeybee) [µg]
C[C@H](NC(=O)c1cc(C(F)(F)F)cc(C(F)(F)F)c1)c1ncnn1-c1ncccn1 [comparative compound, (S)—N-(1-(1-(pyrimidin-2-yl)-1H-1,2,4-triazol-5-yl)ethyl)-3,5-bis(trifluoromethyl)benzamide, reference compound] | B or higher | B or higher | B or higher | B or higher |  | 
C[C@H](NC(=O)c1cc(C(F)(F)F)cc(C(F)(F)F)c1)c1ncnn1-c1cc(C(F)(F)F)ncn1 [present inventive compound, (S)—N-(1-(1-(6-trifluoromethylpyrimidin-4-yl)-1H-1,2,4-triazol-5-yl)ethyl)-3,5-bis(trifluoromethyl)benzamide] | B or higher | B or higher | B or higher | B or higher | more than 200 times | 2.04
